Results taken from patent publication US20230085307A1, “PYRIDAZINONE COMPOUND AND HERBICIDE” (NISSAN CHEMICAL CORPORATION, priority 2019, published 2023).

How the values were obtained:
velvetleaf [1] = assay: Test Example 4: herbicidal effect by soil treatment (Table 19, symbol M); type: in vivo, velvetleaf (Abutilon theophrasti); details: amount of applied herbicide 320 g/ha
In short: (§1)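 Soil-surface application: an emulsion agent diluted with water to the predetermined dose is sprayed uniformly over seeds lying under roughly 1.5 cm of sterilized diluvial soil. Boxes stay in a greenhouse at 25° C. to 30° C. Three weeks later, each species is graded on previously defined criteria.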

late watergrass = assay: Test Example 1: herbicidal activity, application before weed generation under submerged conditions (Table 16, symbol A); type: in vivo, late watergrass (Echinochloa oryzicola); details: 320 g/ha applied herbicide
In short: (§2)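 Submerged Wagner pots (alluvial soil, 4 cm water) sown with weed seeds and planted with 2.5-leaf rice seedlings; emulsifiable concentrate diluted in water applied to water surface on sowing day. Held in greenhouse at 25-30 °C; injury scored 0-5 by herbicidal rate after three weeks.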

redroot pigweed [2] = assay: Test Example 4: herbicidal effect by soil treatment (Table 19, symbol N); type: in vivo, redroot pigweed (Amaranthus retroflexus); details: amount of applied herbicide 320 g/ha
In short: as §1

blackgrass [3] = assay: Test Example 5: herbicidal effect by foliage application, plastic box (Table 20, symbol J); type: in vivo, blackgrass (Alopecurus myosuroides); details: foliage application, 320 g/ha, three weeks after application
In short: (§3)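 Sow seeds spot-wise in sterilized diluvial soil; cover with ~1.5 cm soil. Grow 14 days in greenhouse, 25° C. to 30° C. Spray foliage with emulsion diluted to predetermined amount. Rate effect after 3 weeks.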

false cleavers [4] = assay: Test Example 5: herbicidal effect by foliage application, plastic box (Table 20, symbol Q); type: in vivo, false cleavers (Galium spurium); details: foliage application, 320 g/ha, three weeks after application
In short: as §3

chickweed [5] = assay: Test Example 4: herbicidal effect by soil treatment (Table 19, symbol P); type: in vivo, common chickweed (Stellaria media); details: amount of applied herbicide 320 g/ha
In short: as §1

lambsquarters [6] = assay: Test Example 5: herbicidal effect by foliage application, plastic box (Table 20, symbol O); type: in vivo, lambsquarters (Chenopodium album); details: foliage application, 320 g/ha, three weeks after application
In short: as §3

southern crabgrass [7] = assay: Test Example 4: herbicidal effect by soil treatment (Table 19, symbol F); type: in vivo, southern crabgrass (Digitaria ciliaris); details: amount of applied herbicide 320 g/ha
In short: as §1

barnyard grass [8] = assay: Test Example 4: herbicidal effect by soil treatment (Table 19, symbol H); type: in vivo, barnyard grass (Echinochloa crus-galli); details: amount of applied herbicide 320 g/ha
In short: as §1

Japanese bulrush = assay: Test Example 1: herbicidal activity, application before weed generation under submerged conditions (Table 16, symbol B); type: in vivo, Japanese bulrush (Schoenoplectus juncoides); details: 320 g/ha applied herbicide
In short: as §2

wild oat [9] = assay: Test Example 5: herbicidal effect by foliage application, plastic box (Table 20, symbol I); type: in vivo, wild oat (Avena fatua); details: foliage application, 320 g/ha, three weeks after application
In short: as §3

Chinese sprangletop = assay: Test Example 3: herbicidal effect by foliage application, Wagner pot (Table 18, symbol D); type: in vivo, chinese sprangletop (Leptochloa chinensis); details: 320 g/ha
In short: (§4)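 Plants were sown in alluvial soil held under 0.1–0.5 cm standing water and grown 14 days in a greenhouse at 25–30 °C. An emulsifiable formulation, water-diluted to the set dose, was then sprayed onto the foliage, and effects were scored three weeks later using previously defined criteria.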

southern crabgrass [10] = assay: Test Example 5: herbicidal effect by foliage application, plastic box (Table 20, symbol F); type: in vivo, southern crabgrass (Digitaria ciliaris); details: foliage application, 320 g/ha, three weeks after application
In short: as §3

barnyard grass [11] = assay: Test Example 5: herbicidal effect by foliage application, plastic box (Table 20, symbol H); type: in vivo, barnyard grass (Echinochloa crus-galli); details: foliage application, 320 g/ha, three weeks after application
In short: as §3

barnyard grass [12] = assay: Test Example 3: herbicidal effect by foliage application, Wagner pot (Table 18, symbol H); type: in vivo, barnyard grass (Echinochloa crus-galli); details: 320 g/ha
In short: as §4

blackgrass [13] = assay: Test Example 4: herbicidal effect by soil treatment (Table 19, symbol J); type: in vivo, blackgrass (Alopecurus myosuroides); details: amount of applied herbicide 320 g/ha
In short: as §1

velvetleaf [14] = assay: Test Example 5: herbicidal effect by foliage application, plastic box (Table 20, symbol M); type: in vivo, velvetleaf (Abutilon theophrasti); details: foliage application, 320 g/ha, three weeks after application
In short: as §3

chickweed [15] = assay: Test Example 5: herbicidal effect by foliage application, plastic box (Table 20, symbol P); type: in vivo, common chickweed (Stellaria media); details: foliage application, 320 g/ha, three weeks after application
In short: as §3

windgrass [16] = assay: Test Example 5: herbicidal effect by foliage application, plastic box (Table 20, symbol L); type: in vivo, windgrass (Apera spica-venti); details: foliage application, 320 g/ha, three weeks after application
In short: as §3

wild oat [17] = assay: Test Example 4: herbicidal effect by soil treatment (Table 19, symbol I); type: in vivo, wild oat (Avena fatua); details: amount of applied herbicide 320 g/ha
In short: as §1

false cleavers [18] = assay: Test Example 4: herbicidal effect by soil treatment (Table 19, symbol Q); type: in vivo, false cleavers (Galium spurium); details: amount of applied herbicide 320 g/ha
In short: as §1

oval-leafed pondweed = assay: Test Example 1: herbicidal activity, application before weed generation under submerged conditions (Table 16, symbol C); type: in vivo, oval-leafed pondweed (Monochoria vaginalis); details: 320 g/ha applied herbicide
In short: as §2

persian speedwell [19] = assay: Test Example 5: herbicidal effect by foliage application, plastic box (Table 20, symbol R); type: in vivo, Persian speedwell (Veronica persica); details: foliage application, 320 g/ha, three weeks after application
In short: as §3

green foxtail [20] = assay: Test Example 4: herbicidal effect by soil treatment (Table 19, symbol G); type: in vivo, green foxtail (Setaria viridis); details: amount of applied herbicide 320 g/ha
In short: as §1

Italian ryegrass [21] = assay: Test Example 5: herbicidal effect by foliage application, plastic box (Table 20, symbol K); type: in vivo, Italian ryegrass (Lolium multiflorum); details: foliage application, 320 g/ha, three weeks after application
In short: as §3

windgrass [22] = assay: Test Example 4: herbicidal effect by soil treatment (Table 19, symbol L); type: in vivo, windgrass (Apera spica-venti); details: amount of applied herbicide 320 g/ha
In short: as §1

persian speedwell [23] = assay: Test Example 4: herbicidal effect by soil treatment (Table 19, symbol R); type: in vivo, Persian speedwell (Veronica persica); details: amount of applied herbicide 320 g/ha
In short: as §1

lambsquarters [24] = assay: Test Example 4: herbicidal effect by soil treatment (Table 19, symbol O); type: in vivo, lambsquarters (Chenopodium album); details: amount of applied herbicide 320 g/ha
In short: as §1

redroot pigweed [25] = assay: Test Example 5: herbicidal effect by foliage application, plastic box (Table 20, symbol N); type: in vivo, redroot pigweed (Amaranthus retroflexus); details: foliage application, 320 g/ha, three weeks after application
In short: as §3

green foxtail [26] = assay: Test Example 5: herbicidal effect by foliage application, plastic box (Table 20, symbol G); type: in vivo, green foxtail (Setaria viridis); details: foliage application, 320 g/ha, three weeks after application
In short: as §3

rice flat sedge = assay: Test Example 3: herbicidal effect by foliage application, Wagner pot (Table 18, symbol E); type: in vivo, rice flat sedge (Cyperus iria); details: 320 g/ha
In short: as §4

Italian ryegrass [27] = assay: Test Example 4: herbicidal effect by soil treatment (Table 19, symbol K); type: in vivo, Italian ryegrass (Lolium multiflorum); details: amount of applied herbicide 320 g/ha
In short: as §1

`CCCCCCOc1ccc(-c2sc3ccccc3c2-c2c(O)c(C)nn(C)c2=O)cc1` [1-028] was tested, and the “herbicidal effect rating, M: velvetleaf” value (velvetleaf [1]) was 0 (Herbicidal rate of 5% or less (almost no effect)), the “Herbicidal effect on A: late watergrass (grade 0-5)” value (late watergrass) was 1 (Herbicidal rate of 5% or more and less than 20%) and the “herbicidal effect rating, N: redroot pigweed” value (redroot pigweed [2]) was 2 (Herbicidal rate of 20% or more and less than 40%). The “herbicidal effect grade, J: blackgrass” value (blackgrass [3]) was 0 (Herbicidal rate of 5% or less (almost no effect)), the “herbicidal effect grade, Q: false cleavers” value (false cleavers [4]) was 4 (Herbicidal rate of 70% or more and less than 90%) and the “herbicidal effect rating, P: chickweed” value (chickweed [5]) was 0 (Herbicidal rate of 5% or less (almost no effect)). The “herbicidal effect grade, O: lambsquarters” value (lambsquarters [6]) was 3 (Herbicidal rate of 40% or more and less than 70%), the “herbicidal effect rating, F: southern crabgrass” value (southern crabgrass [7]) was 0 (Herbicidal rate of 5% or less (almost no effect)) and the “herbicidal effect rating, H: barnyard grass” value (barnyard grass [8]) was 0 (Herbicidal rate of 5% or less (almost no effect)). The “Herbicidal effect on B: Japanese bulrush (grade 0-5)” value (Japanese bulrush) was 2 (Herbicidal rate of 20% or more and less than 40%), the “herbicidal effect grade, I: wild oat” value (wild oat [9]) was 3 (Herbicidal rate of 40% or more and less than 70%) and the “herbicidal effect on D (Chinese sprangletop), rating 0-5” value (Chinese sprangletop) was 0 (Herbicidal rate of 5% or less (almost no effect)). For the same compound, the “herbicidal effect grade, F: southern crabgrass” value (southern crabgrass [10]) was 0 (Herbicidal rate of 5% or less (almost no effect)), the “herbicidal effect grade, H: barnyard grass” value (barnyard grass [11]) was 0 (Herbicidal rate of 5% or less (almost no effect)) and the “herbicidal effect on H (barnyard grass), rating 0-5” value (barnyard grass [12]) was 3 (Herbicidal rate of 40% or more and less than 70%). For the same compound, the “herbicidal effect rating, J: blackgrass” value (blackgrass [13]) was 0 (Herbicidal rate of 5% or less (almost no effect)), the “herbicidal effect grade, M: velvetleaf” value (velvetleaf [14]) was 3 (Herbicidal rate of 40% or more and less than 70%) and the “herbicidal effect grade, P: chickweed” value (chickweed [15]) was 5 (Herbicidal rate of 90% or more (almost completely withered)). The “herbicidal effect grade, L: windgrass” value (windgrass [16]) was 3 (Herbicidal rate of 40% or more and less than 70%), the “herbicidal effect rating, I: wild oat” value (wild oat [17]) was 0 (Herbicidal rate of 5% or less (almost no effect)) and the “herbicidal effect rating, Q: false cleavers” value (false cleavers [18]) was 0 (Herbicidal rate of 5% or less (almost no effect)). For the same compound, the “Herbicidal effect on C: oval-leafed pondweed (grade 0-5)” value (oval-leafed pondweed) was 0 (Herbicidal rate of 5% or less (almost no effect)), the “herbicidal effect grade, R: persian speedwell” value (persian speedwell [19]) was 3 (Herbicidal rate of 40% or more and less than 70%) and the “herbicidal effect rating, G: green foxtail” value (green foxtail [20]) was 0 (Herbicidal rate of 5% or less (almost no effect)). For the same compound, the “herbicidal effect grade, K: Italian ryegrass” value (Italian ryegrass [21]) was 2 (Herbicidal rate of 20% or more and less than 40%), the “herbicidal effect rating, L: windgrass” value (windgrass [22]) was 0 (Herbicidal rate of 5% or less (almost no effect)) and the “herbicidal effect rating, R: persian speedwell” value (persian speedwell [23]) was 0 (Herbicidal rate of 5% or less (almost no effect)). The “herbicidal effect rating, O: lambsquarters” value (lambsquarters [24]) was 0 (Herbicidal rate of 5% or less (almost no effect)), the “herbicidal effect grade, N: redroot pigweed” value (redroot pigweed [25]) was 5 (Herbicidal rate of 90% or more (almost completely withered)) and the “herbicidal effect grade, G: green foxtail” value (green foxtail [26]) was 4 (Herbicidal rate of 70% or more and less than 90%). The “herbicidal effect on E (rice flat sedge), rating 0-5” value (rice flat sedge) was 4 (Herbicidal rate of 70% or more and less than 90%) and the “herbicidal effect rating, K: Italian ryegrass” value (Italian ryegrass [27]) was 0 (Herbicidal rate of 5% or less (almost no effect)).
